Series [1] in a line: DVS (Dynamic Vapour Sorption) experiments, hygroscopicity. Type of series: physicochemical. The protocol:
As shown in Example 1 of the present invention, DVS (Dynamic Vapour Sorption) experiments were performed at 25° C. and at 40° C. […] In contrast hereto, as shown in Example 2, Nalmefene hydrochloride as monohydrate absorbed about 2.5% water when exposed to 95% RH and 40° C.
DVS experiments were performed at 25° C. and at 40° C. The dihydrate is retained at relative humidity of 10-95%. Adsorption to the surface at high relative humidity is less than 0.2%. Desorption of the crystal water occurs slowly under 10% RH.
DVS experiments were performed at 25° C. and at 40° C. The shape of the curves was the same, only the curve at 40° C. is shown (FIG. 5).
Most of the water of hydration (4%) was absorbed at 10% RH. […] The amounts here are given as % weigh increase relative to dry, thus the weight gain corresponding to monohydrate was 4.8% and a 1.5 hydrate corresponds to a gain of 7.2%.

For series [2] the following is noted: Brittain, Analytical Profiles of Drug Substances and Excipients (1996); cited from earlier work.
A short description of series [3]: Solubility in aqueous solutions. The class given is physicochemical. From the text:
To recover any unused Nalmefene hydrochloride from the methods I or II, outlined above, a method for the recovery has been developed that comprises • (i) optionally, distillation of mother liquors obtained from method (I) or (II) • (ii) basification of the mother liquors obtained in step (i), or from the methods (I) or (II), • (iii) extracting the mixture with a suitable organic solvent, • (iv) adding hydrogen chloride, and • (v) isolating the formed solid

Series [4] in a line: Particle size by Laser Diffraction (Malvern Mastersizer S). To be noted: Example 3 batch, mineral oil as dispergent. Type of series: physicochemical. The protocol: In the present context, particle sizes are determined by Laser Diffraction using a Malvern Mastersizer S instrument as disclosed in details in the introductory part of the experimental section.
In the present context, particle sizes are determined by Laser Diffraction using a Malvern Mastersizer S instrument made up of a laser transmitter (LASER HELIUM-NEON-wavelength 632 nm), an optical system (300 F lens, range 0.5-900 μm), a measurement cell for suspension (beam length 2.4 mm) and a photodiode detector. The sample is analysed using mineral oil (CAS 8042-47) as dispergent.
The particle size of the so obtained Nalmefene hydrochloride dihydrate was determined by Laser Diffraction using a Malvern Mastersizer S instrument.

Where a name gives a salt, the structure may show the parent alone.

Take `C=C1CC[C@@]2(O)[C@H]3Cc4ccc(O)c5c4[C@@]2(CCN3CC2CC2)[C@H]1O5` [Nalmefene hydrochloride monohydrate]: the “water absorbed when exposed to 95% RH and 40° C.” value in series [1] (95% RH, 40° C.) is given as “about 2.5%”. Also, the “weight increase relative to dry at 10% RH” value in series [1] (DVS, 10% RH) was 4%. In addition, the “weight increase relative to dry at 50% RH” value in series [1] (DVS, 50% RH) amounted to 4.3%. Further, in series [1] (DVS, 60% RH), the “weight increase relative to dry at 60% RH” value is 6.9%. For the same compound, the “weight increase relative to dry at 95% RH” value in series [1] (DVS, 95% RH) is listed as 7.3%. Besides, the “RH above which the form changed into a new structure with higher water content” value in series [1] (DVS, Example 2) is recorded as “above 50%”. For the same compound, the “hygroscopicity (in words)” value in series [1] (listed as Nalmefene hydrochloride as a monohydrate, hydrochloride monohydrate) was “hygroscopic”. For the same compound, the adventitious moisture sorbed entry in series [2] was “up to 1%”.

For `C=C1CC[C@@]2(O)[C@H]3Cc4ccc(O)c5c4[C@@]2(CCN3CC2CC2)[C@H]1O5` [Nalmefene hydrochloride, 17-(cyclopropylmethyl)-4,5-α-epoxy-6-methylenemorphinan-3,14-diol hydrochloride], the “solubility in aqueous solutions such as water” value in series [3] is given as “highly soluble”.

With `C=C1CC[C@@]2(O)[C@H]3Cc4ccc(O)c5c4[C@@]2(CCN3CC2CC2)[C@H]1O5` [Nalmefene hydrochloride dihydrate], in series [1] (DVS at 25° C. and 40° C.), the “relative humidity at which the hydrate is retained” value is 10-95% and the “relative humidity under which desorption of the crystal water occurs slowly” value is recorded as “under 10 % RH”. Besides, the “adsorption to the surface at high relative humidity” value in series [1] (DVS at 25° C. and 40° C., high relative humidity) is given as “less than 0.2%”. Besides, the “water absorbed at 95% RH” value in series [1] (DVS at 25° C. and at 40° C., 95% RH) is on record as “no water was absorbed”. Further, in series [1] (DVS-curve, crystal lattice retained), the “rehydration after drying at 0% RH” value is listed as “complete rehydration”. Also, the “hygroscopicity (in words)” value in series [1] (hydrochloride dihydrate) is on record as “non-hygroscopic”. For the same compound, in series [4], the “particle size D10” value worked out at 14 μm, the “particle size D50” value stood at 122 μm and the “particle size D90” value was 287 μm.

Source of the values: patent US8754217B2, “Nalmefene hydrochloride dihydrate” (H. Lundbeck A/S, priority 2008, dated 2014).
